Data from patent US20230295119A1, “SUBSTITUTED PYRIDINES FOR THE TREATMENT OF INFLAMMATORY DISEASES” (GOSSAMER BIO SERVICES, INC., priority 2020, published 2023).

How the values were obtained:
[1] = biological target: TYK2 JH2 domain (Homo sapiens (Human), UniProt P29597); assay: TYK2 JH2 NanoBRET assay; format: binding; conditions: Table 20, read-out: TYK2 IC50
Description: HEK293T cells were transfected with NanoLuc-TYK2 JH2 Fusion Vector (Promega, customized) using Trans-IT reagent (Mirus, #MIR2700) and incubated for overnight in 37° C. incubator. […] Add 85 µL of cell suspension into white, polypropylene, 96-well plates (Corning, #3600). 90 µL of cells were used for no tracer control samples. 5 µL of diluted NanoBRET K10 tracer (Promega, #CS1810C122) were added to cells to a final concentration of 0.5 µM. Test compounds were diluted into DMSO, and then phenol-free opti-MEM to 10X of final concentration. 10 µL of diluted compounds were added into each well. The cells were incubated with test compound and tracer for 2 hours. 3XNanoBRET® Nano-Glo® Substrate and Extracellular NanoLuc® Inhibitor mixture were prepared and 50 µL of the mixture were added into the wells and mixed. […] NanoBRET signal was determined by using the ratio of acceptor signal and donor signal.

[2] = biological target: human JAK1 (Homo sapiens (Human), UniProt P23458); assay: JAK1 TR-FRET kinase assay; format: biochemical; conditions: TR-FRET, JAK1 2.5 nM
[3] = biological target: human JAK2 (Homo sapiens (Human), UniProt O60674); assay: JAK2 TR-FRET kinase assay; format: biochemical; conditions: JAK2 0.025 nM
[4] = biological target: human JAK3 (Homo sapiens (Human), UniProt P52333); assay: JAK3 TR-FRET kinase assay; format: biochemical; conditions: JAK3 0.0125 nM
human JAK3, sequence (P52333 whole entry): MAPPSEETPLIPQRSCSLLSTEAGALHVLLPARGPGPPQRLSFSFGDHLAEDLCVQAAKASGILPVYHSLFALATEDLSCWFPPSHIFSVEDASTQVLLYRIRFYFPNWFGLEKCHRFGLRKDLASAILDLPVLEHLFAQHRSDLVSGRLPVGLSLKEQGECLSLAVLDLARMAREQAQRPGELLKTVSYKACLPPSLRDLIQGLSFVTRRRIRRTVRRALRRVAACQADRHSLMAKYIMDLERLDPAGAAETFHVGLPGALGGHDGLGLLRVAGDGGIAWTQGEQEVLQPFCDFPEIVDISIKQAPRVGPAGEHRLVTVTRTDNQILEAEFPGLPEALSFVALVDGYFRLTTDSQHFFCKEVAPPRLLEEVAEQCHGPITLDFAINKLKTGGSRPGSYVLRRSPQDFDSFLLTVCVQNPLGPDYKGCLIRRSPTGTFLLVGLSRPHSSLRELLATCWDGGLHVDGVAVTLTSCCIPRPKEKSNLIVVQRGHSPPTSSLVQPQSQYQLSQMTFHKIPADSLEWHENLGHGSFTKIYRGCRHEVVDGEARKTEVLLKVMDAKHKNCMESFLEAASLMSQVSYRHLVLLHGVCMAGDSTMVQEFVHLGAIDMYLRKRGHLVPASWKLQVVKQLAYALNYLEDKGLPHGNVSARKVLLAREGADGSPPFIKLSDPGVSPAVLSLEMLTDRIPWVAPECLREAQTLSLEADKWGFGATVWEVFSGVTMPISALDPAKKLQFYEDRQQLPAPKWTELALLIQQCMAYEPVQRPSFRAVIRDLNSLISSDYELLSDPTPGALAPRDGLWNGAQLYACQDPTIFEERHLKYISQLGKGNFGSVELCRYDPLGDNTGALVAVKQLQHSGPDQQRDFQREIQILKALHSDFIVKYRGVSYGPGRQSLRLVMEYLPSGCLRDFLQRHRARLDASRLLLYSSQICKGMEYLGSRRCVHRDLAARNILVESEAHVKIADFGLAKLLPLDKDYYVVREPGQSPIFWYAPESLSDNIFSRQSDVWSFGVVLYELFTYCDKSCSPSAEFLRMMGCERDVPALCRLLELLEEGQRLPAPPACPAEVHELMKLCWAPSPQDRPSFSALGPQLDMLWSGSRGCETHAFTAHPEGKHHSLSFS

TYK2 JH2 domain, sequence (P29597 589-875): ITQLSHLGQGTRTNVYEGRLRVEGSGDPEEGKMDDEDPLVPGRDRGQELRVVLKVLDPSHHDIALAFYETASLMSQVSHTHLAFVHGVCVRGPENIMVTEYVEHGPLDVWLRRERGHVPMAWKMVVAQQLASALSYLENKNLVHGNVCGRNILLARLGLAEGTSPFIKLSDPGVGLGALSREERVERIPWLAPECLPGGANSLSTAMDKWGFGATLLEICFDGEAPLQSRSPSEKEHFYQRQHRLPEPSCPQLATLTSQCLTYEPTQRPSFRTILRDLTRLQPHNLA
human JAK2, sequence (O60674 whole entry): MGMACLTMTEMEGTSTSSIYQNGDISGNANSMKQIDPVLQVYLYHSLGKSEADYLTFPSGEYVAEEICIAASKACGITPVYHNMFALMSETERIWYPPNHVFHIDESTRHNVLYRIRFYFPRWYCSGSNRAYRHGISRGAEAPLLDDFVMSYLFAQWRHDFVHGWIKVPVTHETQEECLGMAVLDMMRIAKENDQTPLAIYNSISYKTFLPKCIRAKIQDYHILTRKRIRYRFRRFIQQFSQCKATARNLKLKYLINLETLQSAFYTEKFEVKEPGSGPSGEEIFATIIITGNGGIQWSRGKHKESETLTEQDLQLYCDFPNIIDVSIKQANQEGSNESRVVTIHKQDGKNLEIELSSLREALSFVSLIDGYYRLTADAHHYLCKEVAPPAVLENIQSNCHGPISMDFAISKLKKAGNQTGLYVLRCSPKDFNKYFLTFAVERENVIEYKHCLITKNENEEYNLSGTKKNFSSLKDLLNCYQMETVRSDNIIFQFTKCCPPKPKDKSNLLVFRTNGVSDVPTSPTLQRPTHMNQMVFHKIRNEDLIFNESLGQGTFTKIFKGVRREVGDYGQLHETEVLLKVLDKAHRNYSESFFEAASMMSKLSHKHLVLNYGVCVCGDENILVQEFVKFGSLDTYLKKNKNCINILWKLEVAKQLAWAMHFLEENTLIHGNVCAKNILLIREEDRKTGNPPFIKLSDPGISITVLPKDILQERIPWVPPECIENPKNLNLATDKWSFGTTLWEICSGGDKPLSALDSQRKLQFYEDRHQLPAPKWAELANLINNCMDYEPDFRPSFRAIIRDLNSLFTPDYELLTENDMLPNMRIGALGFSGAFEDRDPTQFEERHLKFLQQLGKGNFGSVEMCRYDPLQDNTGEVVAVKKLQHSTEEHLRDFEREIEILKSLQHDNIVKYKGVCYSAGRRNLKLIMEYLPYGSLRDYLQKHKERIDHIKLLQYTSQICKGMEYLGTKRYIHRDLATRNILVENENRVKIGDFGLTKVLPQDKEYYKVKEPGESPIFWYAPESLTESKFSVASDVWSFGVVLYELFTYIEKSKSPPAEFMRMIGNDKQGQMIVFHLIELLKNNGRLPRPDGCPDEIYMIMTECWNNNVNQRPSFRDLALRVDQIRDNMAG
human JAK1, sequence (P23458 whole entry): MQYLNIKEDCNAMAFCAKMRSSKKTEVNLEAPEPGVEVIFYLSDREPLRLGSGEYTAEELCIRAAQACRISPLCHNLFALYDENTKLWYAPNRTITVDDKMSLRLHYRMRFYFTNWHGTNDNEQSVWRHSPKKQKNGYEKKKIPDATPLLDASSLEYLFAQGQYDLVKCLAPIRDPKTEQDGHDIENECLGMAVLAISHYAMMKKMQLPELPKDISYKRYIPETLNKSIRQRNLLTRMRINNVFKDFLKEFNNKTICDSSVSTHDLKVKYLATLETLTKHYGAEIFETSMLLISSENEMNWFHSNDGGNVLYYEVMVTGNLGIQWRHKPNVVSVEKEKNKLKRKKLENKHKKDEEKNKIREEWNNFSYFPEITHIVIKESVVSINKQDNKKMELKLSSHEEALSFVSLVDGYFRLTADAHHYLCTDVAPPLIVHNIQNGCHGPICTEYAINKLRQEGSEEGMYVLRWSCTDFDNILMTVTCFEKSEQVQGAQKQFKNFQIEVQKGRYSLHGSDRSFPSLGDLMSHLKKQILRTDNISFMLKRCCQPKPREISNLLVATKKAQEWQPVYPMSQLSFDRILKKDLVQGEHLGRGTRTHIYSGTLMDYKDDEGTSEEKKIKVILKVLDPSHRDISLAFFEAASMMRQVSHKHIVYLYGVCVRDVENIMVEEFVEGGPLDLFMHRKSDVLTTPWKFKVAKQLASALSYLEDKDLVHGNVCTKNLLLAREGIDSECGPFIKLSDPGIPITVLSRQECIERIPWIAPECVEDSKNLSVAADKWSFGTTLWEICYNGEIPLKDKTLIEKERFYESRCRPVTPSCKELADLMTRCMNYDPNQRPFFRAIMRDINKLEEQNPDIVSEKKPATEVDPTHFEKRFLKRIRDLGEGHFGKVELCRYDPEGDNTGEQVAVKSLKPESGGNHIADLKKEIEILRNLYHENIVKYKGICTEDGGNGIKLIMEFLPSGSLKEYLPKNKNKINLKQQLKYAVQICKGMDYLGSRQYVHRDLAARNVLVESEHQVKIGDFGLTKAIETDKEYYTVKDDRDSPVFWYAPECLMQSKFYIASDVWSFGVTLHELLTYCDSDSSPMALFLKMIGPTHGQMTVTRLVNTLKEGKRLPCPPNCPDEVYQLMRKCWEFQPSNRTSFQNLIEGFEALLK

Compound	IC50 [1] [nM]	IC50 [2] [nM]	IC50 [3] [nM]	IC50 [4] [nM]
CCC(=O)c1cnc(Nc2ccc(CNC)nn2)cc1Nc1cccc(-c2ncn(C)n2)c1OC [Compound 9GGG]	5 to 50	≥ 500	≥ 500	≥ 500
CCC(=O)c1cnc(Nc2ccc([C@H](C)N3CC(O)C3)cn2)cc1Nc1cccc(-c2ncn(C)n2)c1OC [Compound 9GG]	5 to 50	≥ 500	≥ 500	≥ 500
CCC(=O)c1cnc(Nc2ccc(C(C)N)cn2)cc1Nc1cccc(-c2ncn(C)n2)c1OC (stereo not drawn) [Compound 9G]	< 5	≥ 500	≥ 500	≥ 500
CCC(=O)c1cnc(Nc2cccc(CN3CCOCC3)n2)cc1Nc1cccc(-c2ncn(C)n2)c1OC [Compound 9HHHH]	< 5	≥ 500	≥ 500	≥ 500
CCC(=O)c1cnc(Nc2ccc(CN(C)C)nn2)cc1Nc1cccc(-c2ncn(C)n2)c1OC [Compound 9HHH]	5 to 50	≥ 500	≥ 500	≥ 500
CCC(=O)c1cnc(Nc2ccc([C@@H](C)N3CC(O)C3)cn2)cc1Nc1cccc(-c2ncn(C)n2)c1OC [Compound 9HH]	5 to 50	≥ 500	≥ 500	≥ 500
CCC(=O)c1cnc(Nc2ccc(C(C)NC)cn2)cc1Nc1cccc(-c2ncn(C)n2)c1OC (stereo not drawn) [Compound 9H]	< 5	≥ 500	≥ 500	≥ 500
CCC(=O)c1cnc(Nc2cc(CN3CCCC3)ccn2)cc1Nc1cccc(-c2ncn(C)n2)c1OC [Compound 9IIII]	< 5	≥ 500	50 to 500	50 to 500
CCC(=O)c1cnc(Nc2ccc(C(C)N)nn2)cc1Nc1cccc(-c2ncn(C)n2)c1OC (stereo not drawn) [Compound 9III]	5 to 50	≥ 500	≥ 500	≥ 500
CCC(=O)c1cnc(Nc2ccc(CN3CCCC3)cn2)cc1Nc1cccc(-c2ncn(C)n2)c1OC [Compound 9II]	< 5	≥ 500	≥ 500	≥ 500
CCC(=O)c1cnc(Nc2ccc(C(C)N(C)C)cn2)cc1Nc1cccc(-c2ncn(C)n2)c1OC (stereo not drawn) [Compound 9I]	< 5	≥ 500	≥ 500	≥ 500
CCC(=O)c1cnc(Nc2cc(CN3CCCCC3)ccn2)cc1Nc1cccc(-c2ncn(C)n2)c1OC [Compound 9JJJJ]	< 5	≥ 500	≥ 500	50 to 500
CCC(=O)c1cnc(Nc2ccc(C(C)NC)nn2)cc1Nc1cccc(-c2ncn(C)n2)c1OC (stereo not drawn) [Compound 9JJJ]	5 to 50	≥ 500	≥ 500	≥ 500
CCC(=O)c1cnc(Nc2ccc(CN3CC[C@@H](F)C3)cn2)cc1Nc1cccc(-c2ncn(C)n2)c1OC [Compound 9JJ]	< 5	≥ 500	≥ 500	≥ 500
CCC(=O)c1cnc(Nc2ccc([C@@H](C)N(C)C)cn2)cc1Nc1cccc(-c2ncn(C)n2)c1OC [Compound 9J]	< 5	≥ 500	≥ 500	≥ 500
CCC(=O)c1cnc(Nc2cc(CN3CCOCC3)ccn2)cc1Nc1cccc(-c2ncn(C)n2)c1OC [Compound 9KKKK]	< 5	≥ 500	≥ 500	50 to 500
CCC(=O)c1cnc(Nc2ccc(C(C)N(C)C)nn2)cc1Nc1cccc(-c2ncn(C)n2)c1OC (stereo not drawn) [Compound 9KKK]	< 5	≥ 500	≥ 500	≥ 500
CCC(=O)c1cnc(Nc2ccc(CN3CC[C@H](F)C3)cn2)cc1Nc1cccc(-c2ncn(C)n2)c1OC [Compound 9KK]	< 5	≥ 500	≥ 500	≥ 500
CCC(=O)c1cnc(Nc2ccc([C@H](C)N(C)C)cn2)cc1Nc1cccc(-c2ncn(C)n2)c1OC [Compound 9K]	< 5	≥ 500	≥ 500	≥ 500
CCC(=O)c1cnc(Nc2cc(CN)ncn2)cc1Nc1cccc(-c2ncn(C)n2)c1OC [Compound 9LLLL]	< 5	≥ 500	≥ 500	≥ 500
CCC(=O)c1cnc(Nc2ccc([C@H](C)N3CC[C@H](O)C3)cn2)cc1Nc1cccc(-c2ncn(C)n2)c1OC [Compound 9LL]	< 5	≥ 500	≥ 500	50 to 500

Compound	IC50 [1] [nM]	IC50 [2] [nM]	IC50 [3] [nM]	IC50 [4] [nM]
CCC(=O)c1cnc(Nc2cc(CNC)ncn2)cc1Nc1cccc(-c2ncn(C)n2)c1OC [Compound 9MMMM]	5 to 50	≥ 500	≥ 500	≥ 500
CCC(=O)c1cnc(Nc2ccc(C(C)(C)NC)nn2)cc1Nc1cccc(-c2ncn(C)n2)c1OC [Compound 9MMM]	5 to 50	≥ 500	≥ 500	≥ 500
CCC(=O)c1cnc(Nc2ccc([C@@H](C)N3CC[C@H](O)C3)cn2)cc1Nc1cccc(-c2ncn(C)n2)c1OC [Compound 9MM]	< 5	≥ 500	≥ 500	≥ 500
CCC(=O)c1cnc(Nc2cc(CN3CCCC3)ncn2)cc1Nc1cccc(-c2ncn(C)n2)c1OC [Compound 9NNNN]	< 5	≥ 500	≥ 500	≥ 500
CCC(=O)c1cnc(Nc2ccc(C(C)(C)N(C)C)nn2)cc1Nc1cccc(-c2ncn(C)n2)c1OC [Compound 9NNN]	5 to 50	≥ 500	≥ 500	≥ 500
CCC(=O)c1cnc(Nc2ccc([C@H](C)N3CC[C@@H](O)C3)cn2)cc1Nc1cccc(-c2ncn(C)n2)c1OC [Compound 9NN]	< 5	≥ 500	≥ 500	≥ 500
CCC(=O)c1cnc(Nc2ccc(C(C)(C)N(C)C)cn2)cc1Nc1cccc(-c2ncn(C)n2)c1OC [Compound 9N]	< 5	≥ 500	≥ 500	≥ 500
CCC(=O)c1cnc(Nc2cc(C(C)N)ncn2)cc1Nc1cccc(-c2ncn(C)n2)c1OC (stereo not drawn) [Compound 9OOOO]	< 5	≥ 500	≥ 500	≥ 500
CCC(=O)c1cnc(Nc2ccc(CN3CCCC3)nn2)cc1Nc1cccc(-c2ncn(C)n2)c1OC [Compound 9OOO]	5 to 50	≥ 500	≥ 500	≥ 500
CCC(=O)c1cnc(Nc2ccc([C@@H](C)N3CC[C@@H](O)C3)cn2)cc1Nc1cccc(-c2ncn(C)n2)c1OC [Compound 9OO]	< 5	≥ 500	50 to 500	50 to 500
CCC(=O)c1cnc(Nc2ccc(C3(N)CC3)cn2)cc1Nc1cccc(-c2ncn(C)n2)c1OC [Compound 9O]	< 5	≥ 500	≥ 500	≥ 500
CCC(=O)c1cnc(Nc2ccc([C@H](C)N3C[C@@H](O)[C@H](O)C3)cn2)cc1Nc1cccc(-c2ncn(C)n2)c1OC [Compound 9PP]	5 to 50	≥ 500	≥ 500	50 to 500
CCC(=O)c1cnc(Nc2ccc(C3(NC)CC3)cn2)cc1Nc1cccc(-c2ncn(C)n2)c1OC [Compound 9P]	< 5	≥ 500	≥ 500	≥ 500
CCC(=O)c1cnc(Nc2cc(C(C)N(C)C)ncn2)cc1Nc1cccc(-c2ncn(C)n2)c1OC (stereo not drawn) [Compound 9QQQQ]	< 5	≥ 500	≥ 500	≥ 500
CCC(=O)c1cnc(Nc2cnc(CN)cn2)cc1Nc1cccc(-c2ncn(C)n2)c1OC [Compound 9QQQ]	< 5	≥ 500	≥ 500	≥ 500
CCC(=O)c1cnc(Nc2ccc([C@@H](C)N3C[C@@H](O)[C@H](O)C3)cn2)cc1Nc1cccc(-c2ncn(C)n2)c1OC [Compound 9QQ]	5 to 50	≥ 500	≥ 500	50 to 500
CCC(=O)c1cnc(Nc2ccc(C3(N(C)C)CC3)cn2)cc1Nc1cccc(-c2ncn(C)n2)c1OC [Compound 9Q]	< 5	≥ 500	≥ 500	≥ 500
CCC(=O)c1cnc(Nc2ccc(CN(C)C)c(C(F)(F)F)n2)cc1Nc1cccc(-c2ncn(C)n2)c1OC [Compound 9RRRR]	5 to 50	≥ 500	≥ 500	≥ 500
CCC(=O)c1cnc(Nc2cnc(CNC)cn2)cc1Nc1cccc(-c2ncn(C)n2)c1OC [Compound 9RRR]	< 5	≥ 500	≥ 500	≥ 500
CCC(=O)c1cnc(Nc2ccc(CN3CCCCC3)cn2)cc1Nc1cccc(-c2ncn(C)n2)c1OC [Compound 9RR]	< 5	≥ 500	≥ 500	≥ 500
CCC(=O)c1cnc(Nc2ccc(CN(C)C3CC3)cn2)cc1Nc1cccc(-c2ncn(C)n2)c1OC [Compound 9R]	5 to 50	≥ 500	≥ 500	≥ 500
